Results reported in ChEMBL document CHEMBL1275440, “In vitro activity of telavancin against resistant gram-positive bacteria” (2008).
Values after ≈ are worked out from the molar mass of the structure shown. Active and inactive are the calls of the source. The rule behind the calls is not given here.

Key:
Enterococcus faecium [1] = assay: Antibacterial activity against vancomycin resistant Enterococcus faecium VanB clinical isolate assessed as susceptibility level by broth microdilution method; format: functional
Enterococcus faecium [2] = assay: Antibacterial activity against vancomycin resistant Enterococcus faecium VanA clinical isolate assessed as susceptibility level by broth microdilution method; format: functional
Enterococcus faecalis [3] = assay: Antibacterial activity against vancomycin resistant Enterococcus faecalis VanB clinical isolate assessed as susceptibility level by broth microdilution method; format: functional
Enterococcus faecalis [4] = assay: Antibacterial activity against vancomycin resistant Enterococcus faecalis VanA clinical isolate assessed as susceptibility level by broth microdilution method; format: functional
Streptococcus viridans [5] = assay: Antibacterial activity against Streptococcus viridans clinical isolate assessed as susceptibility level by broth microdilution method; format: functional
[6] = system: Streptococcus constellatus; assay: Antibacterial activity against Streptococcus constellatus clinical isolate assessed as susceptibility level by broth microdilution method; format: functional
Streptococcus oralis [7] = assay: Antibacterial activity against Streptococcus oralis clinical isolate assessed as susceptibility level by broth microdilution method; format: functional
[8] = system: Streptococcus intermedius; assay: Antibacterial activity against Streptococcus intermedius clinical isolate assessed as susceptibility level by broth microdilution method; format: functional
Streptococcus mitis [9] = assay: Antibacterial activity against Streptococcus mitis clinical isolate assessed as susceptibility level by broth microdilution method; format: functional
Streptococcus agalactiae [10] = assay: Antibacterial activity against Streptococcus agalactiae group B clinical isolate assessed as susceptibility level by broth microdilution method; format: functional
Streptococcus pyogenes [11] = assay: Antibacterial activity against Streptococcus pyogenes group A clinical isolate assessed as susceptibility level by broth microdilution method; format: functional
[12] = system: Staphylococcus saprophyticus; assay: Antibacterial activity against methicillin resistant coagulase-negative Staphylococcus saprophyticus clinical isolate assessed as susceptibility level by broth microdilution method; format: functional
[13] = Antibacterial activity against methicillin resistant coagulase-negative Staphylococcus hominis subsp. novobiosepticus clinical isolate assessed as susceptibility level by broth microdilution method; format: functional
[14] = system: Staphylococcus haemolyticus; assay: Antibacterial activity against methicillin resistant coagulase-negative Staphylococcus haemolyticus clinical isolate assessed as susceptibility level by broth microdilution method; format: functional
Staphylococcus capitis [15] = assay: Antibacterial activity against methicillin resistant coagulase-negative Staphylococcus capitis clinical isolate assessed as susceptibility level by broth microdilution method; format: functional
[16] = system: Staphylococcus auricularis; assay: Antibacterial activity against methicillin resistant coagulase-negative Staphylococcus auricularis clinical isolate assessed as susceptibility level by broth microdilution method; format: functional
[17] = system: Staphylococcus epidermidis; assay: Antibacterial activity against methicillin resistant Staphylococcus epidermidis clinical isolate assessed as susceptibility level by broth microdilution method; format: functional
Staphylococcus aureus [18] = assay: Antibacterial activity against methicillin resistant Staphylococcus aureus clinical isolate assessed as susceptibility level by broth microdilution method; format: functional
Enterococcus faecium [19] = assay: Antibacterial activity against vancomycin resistant Enterococcus faecium VanB clinical isolate by broth microdilution method; format: functional
Enterococcus faecium [20] = assay: Antibacterial activity against vancomycin resistant Enterococcus faecium VanA clinical isolate by broth microdilution method; format: functional
Enterococcus faecalis [21] = assay: Antibacterial activity against vancomycin resistant Enterococcus faecalis VanB clinical isolate by broth microdilution method; format: functional
Enterococcus faecalis [22] = assay: Antibacterial activity against vancomycin resistant Enterococcus faecalis VanA clinical isolate by broth microdilution method; format: functional
Streptococcus viridans [23] = assay: Antibacterial activity against Streptococcus viridans clinical isolate by broth microdilution method; format: functional
[24] = system: Streptococcus constellatus; assay: Antibacterial activity against Streptococcus constellatus clinical isolate by broth microdilution method; format: functional
Streptococcus oralis [25] = assay: Antibacterial activity against Streptococcus oralis clinical isolate by broth microdilution method; format: functional
[26] = system: Streptococcus intermedius; assay: Antibacterial activity against Streptococcus intermedius clinical isolate by broth microdilution method; format: functional
Streptococcus mitis [27] = assay: Antibacterial activity against Streptococcus mitis clinical isolate by broth microdilution method; format: functional
Streptococcus agalactiae [28] = assay: Antibacterial activity against Streptococcus agalactiae group B clinical isolate by broth microdilution method; format: functional
Streptococcus pyogenes [29] = assay: Antibacterial activity against Streptococcus pyogenes group A clinical isolate by broth microdilution method; format: functional
Streptococcus pneumoniae [30] = assay: Antibacterial activity against multidrug-resistant Streptococcus pneumoniae clinical isolate by broth microdilution method; format: functional
Streptococcus pneumoniae [31] = assay: Antibacterial activity against penicillin resistant Streptococcus pneumoniae clinical isolate by broth microdilution method; format: functional
Streptococcus pneumoniae [32] = assay: Antibacterial activity against penicillin intermediate Streptococcus pneumoniae clinical isolate by broth microdilution method; format: functional
[33] = system: Staphylococcus saprophyticus; assay: Antibacterial activity against methicillin resistant coagulase-negative Staphylococcus saprophyticus clinical isolate by broth microdilution method; format: functional
[34] = Antibacterial activity against methicillin resistant coagulase-negative Staphylococcus hominis subsp. novobiosepticus clinical isolate by broth microdilution method; format: functional
[35] = system: Staphylococcus haemolyticus; assay: Antibacterial activity against methicillin resistant coagulase-negative Staphylococcus haemolyticus clinical isolate by broth microdilution method; format: functional
Staphylococcus capitis [36] = assay: Antibacterial activity against methicillin resistant coagulase-negative Staphylococcus capitis clinical isolate by broth microdilution method; format: functional
[37] = system: Staphylococcus auricularis; assay: Antibacterial activity against methicillin resistant coagulase-negative Staphylococcus auricularis clinical isolate by broth microdilution method; format: functional
[38] = system: Staphylococcus epidermidis; assay: Antibacterial activity against methicillin resistant Staphylococcus epidermidis clinical isolate by broth microdilution method; format: functional
Staphylococcus aureus [39] = assay: Antibacterial activity against methicillin resistant Staphylococcus aureus clinical isolate by broth microdilution method; format: functional; conditions: for MIC50 / MIC90: Staphylococcus aureus
Enterococcus faecalis [40] = system: Enterococcus faecalis
Streptococcus pyogenes [41] = assay: Antibacterial activity against Streptococcus pyogenes MED 2040 by broth microdilution method; format: functional
Streptococcus agalactiae [42] = assay: Antibacterial activity against Streptococcus agalactiae MED 2038 by broth microdilution method; format: functional
[43] = system: Staphylococcus epidermidis; assay: Antibacterial activity against methicillin resistant Staphylococcus epidermidis ATCC 35984 by broth microdilution method; format: functional
Streptococcus pneumoniae [44] = assay: Antibacterial activity against penicillin intermediate Streptococcus pneumoniae clinical isolate assessed as susceptibility level by broth microdilution method; format: functional

CCCCCCCCCC(=O)N[C@@H](Cc1c[nH]c2ccccc12)C(=O)N[C@H](CC(N)=O)C(=O)N[C@@H](CC(=O)O)C(=O)N[C@@H]1C(=O)NCC(=O)N[C@@H](CCCN)C(=O)N[C@@H](CC(=O)O)C(=O)N[C@H](C)C(=O)N[C@@H](CC(=O)O)C(=O)NCC(=O)N[C@H](CO)C(=O)N[C@@H]([C@H](C)CC(=O)O)C(=O)N[C@@H](CC(=O)c2ccccc2N)C(=O)O[C@@H]1C
Activity (Enterococcus faecium [1]): 93%
Activity (Enterococcus faecium [2]): 98%
Activity (Enterococcus faecalis [3]): 100%
Percent of isolates susceptible (Enterococcus faecalis [4]): 100%
Activity (Streptococcus viridans [5]): 100%
Activity [6]: 100%
Activity (Streptococcus oralis [7]): 100%
Activity [8]: 100%
Activity (Streptococcus mitis [9]): 100%
Activity (Streptococcus agalactiae [10]): 100%
Activity (Streptococcus pyogenes [11]): 100%
Activity [12]: 100%
Activity [13]: 100%
Activity [14]: 100%
Activity (Staphylococcus capitis [15]): 100%
Activity [16]: 100%
Activity [17]: 100%
Activity (Staphylococcus aureus [18]): 98%
MIC50 (Enterococcus faecium [19]): 2 µg/mL (≈ 1.23 µM)
MIC90 (Enterococcus faecium [19]): 4 µg/mL (≈ 2.47 µM)
MIC50 (Enterococcus faecium [20]): 2 µg/mL (≈ 1.23 µM)
MIC90 (Enterococcus faecium [20]): 4 µg/mL (≈ 2.47 µM)
MIC (Enterococcus faecalis [21]): 0.5 µg/mL (≈ 0.309 µM)
MIC50 (Enterococcus faecalis [22]): 1 µg/mL (≈ 0.617 µM)
MIC90 (Enterococcus faecalis [22]): 2 µg/mL (≈ 1.23 µM)
MIC (Streptococcus viridans [23]): 0.25 µg/mL (≈ 0.154 µM)
MIC50 (Streptococcus viridans [23]): inactive
MIC90 (Streptococcus viridans [23]): inactive
MIC [24]: 0.25 µg/mL (≈ 0.154 µM)
MIC50 [24]: inactive
MIC90 [24]: inactive
MIC (Streptococcus oralis [25]): 0.25 µg/mL (≈ 0.154 µM)
MIC50 (Streptococcus oralis [25]): inactive
MIC90 (Streptococcus oralis [25]): inactive
MIC [26]: 0.25 µg/mL (≈ 0.154 µM)
MIC50 [26]: inactive
MIC90 [26]: inactive
MIC (Streptococcus mitis [27]): 0.25 µg/mL (≈ 0.154 µM)
MIC50 (Streptococcus mitis [27]): inactive
MIC90 (Streptococcus mitis [27]): inactive
MIC50 (Streptococcus agalactiae [28]): 0.25 µg/mL (≈ 0.154 µM)
MIC90 (Streptococcus agalactiae [28]): 0.25 µg/mL (≈ 0.154 µM)
MIC (Streptococcus pyogenes [29]): ≤ 0.03 µg/mL
MIC50 (Streptococcus pyogenes [29]): ≤ 0.03 µg/mL
MIC90 (Streptococcus pyogenes [29]): 0.25 µg/mL (≈ 0.154 µM)
MIC50 (Streptococcus pneumoniae [30]): 0.12 µg/mL (≈ 0.074 µM)
MIC90 (Streptococcus pneumoniae [30]): 0.12 µg/mL (≈ 0.074 µM)
MIC50 (Streptococcus pneumoniae [31]): 0.12 µg/mL (≈ 0.074 µM)
MIC90 (Streptococcus pneumoniae [31]): 0.12 µg/mL (≈ 0.074 µM)
MIC50 (Streptococcus pneumoniae [32]): 0.12 µg/mL (≈ 0.074 µM)
MIC90 (Streptococcus pneumoniae [32]): 0.5 µg/mL (≈ 0.309 µM)
MIC50 [33]: 0.25 µg/mL (≈ 0.154 µM)
MIC90 [33]: 1 µg/mL (≈ 0.617 µM)
MIC50 [34]: 0.25 µg/mL (≈ 0.154 µM)
MIC90 [34]: 1 µg/mL (≈ 0.617 µM)
MIC50 [35]: 0.25 µg/mL (≈ 0.154 µM)
MIC90 [35]: 1 µg/mL (≈ 0.617 µM)
MIC50 (Staphylococcus capitis [36]): 0.25 µg/mL (≈ 0.154 µM)
MIC90 (Staphylococcus capitis [36]): 1 µg/mL (≈ 0.617 µM)
MIC50 [37]: 0.25 µg/mL (≈ 0.154 µM)
MIC90 [37]: 1 µg/mL (≈ 0.617 µM)
MIC50 [38]: 0.5 µg/mL (≈ 0.309 µM)
MIC90 [38]: 1 µg/mL (≈ 0.617 µM)
Activity (Staphylococcus aureus [39]): 98%
MIC50 (Staphylococcus aureus [39]): 0.25 µg/mL (≈ 0.154 µM)
MIC90 (Staphylococcus aureus [39]): 0.5 µg/mL (≈ 0.309 µM)
MIC50 (Enterococcus faecalis [40]): inactive
MIC90 (Enterococcus faecalis [40]): inactive

CC(=O)NC[C@H]1CN(c2ccc(N3CCOCC3)c(F)c2)C(=O)O1 [LINEZOLID]
MIC (Streptococcus pyogenes [41]): 1 µg/mL (≈ 2.96 µM)
MIC (Streptococcus agalactiae [42]): 1 µg/mL (≈ 2.96 µM)
MIC [43]: 2 µg/mL (≈ 5.93 µM)
Activity (Enterococcus faecium [1]): 96%
Activity (Enterococcus faecium [2]): 99%
Activity (Enterococcus faecalis [3]): 100%
Activity (Streptococcus viridans [5]): 100%
Activity [6]: 100%
Activity (Streptococcus oralis [7]): 100%
Activity [8]: 100%
Activity (Streptococcus mitis [9]): 100%
Activity (Streptococcus agalactiae [10]): 100%
Activity (Streptococcus pyogenes [11]): 98%
Activity (Streptococcus pneumoniae [44]): 100%
Activity [12]: 100%
Activity [13]: 100%
Activity [14]: 100%
Activity (Staphylococcus capitis [15]): 100%
Activity [16]: 100%
Activity [17]: 100%
Activity (Staphylococcus aureus [18]): 99%
MIC50 (Enterococcus faecium [19]): 2 µg/mL (≈ 5.93 µM)
MIC90 (Enterococcus faecium [19]): 2 µg/mL (≈ 5.93 µM)
MIC50 (Enterococcus faecium [20]): 2 µg/mL (≈ 5.93 µM)
MIC90 (Enterococcus faecium [20]): 2 µg/mL (≈ 5.93 µM)
MIC (Enterococcus faecalis [21]): 0.5 µg/mL (≈ 1.48 µM)
MIC (Streptococcus viridans [23]): 0.5 µg/mL (≈ 1.48 µM)
MIC50 (Streptococcus viridans [23]): inactive
MIC90 (Streptococcus viridans [23]): inactive
MIC [24]: 0.5 µg/mL (≈ 1.48 µM)
MIC50 [24]: inactive
MIC90 [24]: inactive
MIC (Streptococcus oralis [25]): 0.5 µg/mL (≈ 1.48 µM)
MIC50 (Streptococcus oralis [25]): inactive
MIC90 (Streptococcus oralis [25]): inactive
MIC [26]: 0.5 µg/mL (≈ 1.48 µM)
MIC50 [26]: inactive
MIC90 [26]: inactive
MIC (Streptococcus mitis [27]): 0.5 µg/mL (≈ 1.48 µM)
MIC50 (Streptococcus mitis [27]): inactive
MIC90 (Streptococcus mitis [27]): inactive
MIC50 (Streptococcus agalactiae [28]): 1 µg/mL (≈ 2.96 µM)
MIC90 (Streptococcus agalactiae [28]): 1 µg/mL (≈ 2.96 µM)
MIC50 (Streptococcus pneumoniae [30]): 1 µg/mL (≈ 2.96 µM)
MIC90 (Streptococcus pneumoniae [30]): 1 µg/mL (≈ 2.96 µM)
MIC50 (Streptococcus pneumoniae [31]): 1 µg/mL (≈ 2.96 µM)
MIC90 (Streptococcus pneumoniae [31]): 1 µg/mL (≈ 2.96 µM)
MIC50 (Streptococcus pneumoniae [32]): 1 µg/mL (≈ 2.96 µM)
MIC90 (Streptococcus pneumoniae [32]): 1 µg/mL (≈ 2.96 µM)
MIC50 [33]: 1 µg/mL (≈ 2.96 µM)
MIC90 [33]: 2 µg/mL (≈ 5.93 µM)
MIC50 [34]: 1 µg/mL (≈ 2.96 µM)
MIC90 [34]: 2 µg/mL (≈ 5.93 µM)
MIC50 [35]: 1 µg/mL (≈ 2.96 µM)
MIC90 [35]: 2 µg/mL (≈ 5.93 µM)
MIC50 (Staphylococcus capitis [36]): 1 µg/mL (≈ 2.96 µM)
MIC90 (Staphylococcus capitis [36]): 2 µg/mL (≈ 5.93 µM)
MIC50 [37]: 1 µg/mL (≈ 2.96 µM)
MIC90 [37]: 2 µg/mL (≈ 5.93 µM)
MIC50 [38]: 1 µg/mL (≈ 2.96 µM)
MIC90 [38]: 1 µg/mL (≈ 2.96 µM)
Activity (Staphylococcus aureus [39]): 99%
MIC50 (Staphylococcus aureus [39]): 2 µg/mL (≈ 5.93 µM)
MIC90 (Staphylococcus aureus [39]): 4 µg/mL (≈ 11.9 µM)
MIC50 (Enterococcus faecalis [40]): inactive
MIC90 (Enterococcus faecalis [40]): inactive
